Target: 5-HT2B receptor (Homo sapiens, UniProt P41595)
Test: h-5HT2B FLIPR calcium mobilization assay in HEK293 cells
Assay type: cell-based
Design: expressed in transfected cells; host or cells: HEK293, stably transfected
Protocol: Compound potency (EC50) and efficacy (Max response) against the human 5-HT2B receptor in stably transfected HEK293 cells was determined in a calcium mobilization-based assay.
Cells were seeded in a total volume of 20 μL into white walled, 384-well microplates and incubated at 37° C. overnight. Prior to testing, cell plating media was exchanged with 20 μL of Dye Loading buffer (HBSS+20 mM HEPES containing 1×Dye, 1×Additive A and 2.5 mM Probenecid). Plates were incubated at 37° C. for 45 mins followed by 15 mins at room temperature.
(§1) 10 μl of assay buffer (HBSS+20 mM HEPES) was added to cells. Intermediate dilution of sample stocks was performed to generate 4×sample in assay buffer. Assay plates, compound plates were loaded into F LIP R instrument. 10 μL of sample was added using F LIP R onboard robotics after 5 seconds of starting calcium measurement. Final assay vehicle concentration was 1%. The results are expressed as a percent efficacy relative to the maximum response of the control ligand (serotonin) in Table 28.
as §1, with “57.” for “28.”

[1] = relative to maximum response of serotonin (Table 28)

Sequence of 5-HT2B receptor (P41595 whole entry): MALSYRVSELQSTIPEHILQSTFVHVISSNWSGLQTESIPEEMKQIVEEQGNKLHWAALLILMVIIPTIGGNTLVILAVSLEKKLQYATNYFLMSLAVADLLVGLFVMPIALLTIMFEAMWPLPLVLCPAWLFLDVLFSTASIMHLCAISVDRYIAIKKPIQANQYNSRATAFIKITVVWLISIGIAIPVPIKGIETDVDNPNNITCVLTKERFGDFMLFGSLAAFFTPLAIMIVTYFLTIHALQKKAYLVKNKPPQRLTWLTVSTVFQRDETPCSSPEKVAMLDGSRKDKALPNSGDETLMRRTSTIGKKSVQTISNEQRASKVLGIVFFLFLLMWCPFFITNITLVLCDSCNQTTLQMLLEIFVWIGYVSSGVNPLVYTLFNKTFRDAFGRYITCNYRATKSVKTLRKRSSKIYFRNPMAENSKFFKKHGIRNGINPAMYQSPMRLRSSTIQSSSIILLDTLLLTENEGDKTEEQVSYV

Structure (SMILES): COc1ccc2[nH]cc(CCN3CC[C@H](OC(F)F)C3)c2c1 [(S) I-67, (S)-3-(2-(3-(Difluoromethoxy)pyrrolidin-1-yl)ethyl)-5-methoxy-1H-indole]
- EC50: > 10 µM
- Emax (% of serotonin) (relative to maximum response of serotonin (Table 57)): 4.23 % of serotonin

Structure (SMILES): CCN(C)CCc1c[nH]c2ccc(SC)cc12 [Compound I-13, N-Ethyl-N-methyl-2-(5-(methylthio)-1H-indol-3-yl)ethan-1-amine]
- EC50: > 10 µM
- Emax (% of serotonin) [1]: 21.04 % of serotonin

Structure (SMILES): [2H]C([2H])([2H])N(CCc1c[nH]c2ccc(SC)cc12)C([2H])([2H])[2H] [Compound I-1, N,N-Bis(methyl-d3)-2-(5-(methylthio)-1H-indol-3-yl)ethan-1-amine]
- EC50: > 10 µM
- Emax (% of serotonin) [1]: 19.8 % of serotonin
